Experimental data: patent publication US7960397B2, “6,9-disubstituted purine derivatives and their use as cosmetics and cosmetic compositions” (Institute of Experimental Botany, Academy of Sciences of …, priority 2007, dated 2011)

What was measured:
[1] = test system: Amaranthus caudatus cotyledon/hypocotyl explants; experiment: Amaranthus bioassay (betacyanin content); parameters: species or system Amaranthus caudatus var. atropurpurea; settings: for concentration with highest activity: betacyanin content after 48 h incubation, tested 10^−8 M to 10^−4 M; for Activity (%) [10^−5 mol · l^−1 BAP = 100%]: betacyanin content at the concentration with highest activity, 10^−5 M BAP = 100%
In short: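 Amaranthus caudatus explants (cotyledons plus hypocotyl) from 72 h dark-grown seedlings were incubated in darkness on medium with 10 mmol Na2HPO4–KH2PO4 pH 6.8, 5 mmol tyrosine and test compound; stock was 10^−3 M in DMSO/water. Betacyanin was measured as A537−A620 and activity expressed relative to 10^−5 M BAP (100%).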

[2] = test system: human diploid fibroblasts (HCA cells, HCA20, HCA40, HCA60); experiment: Senescent cells (β-galactosidase staining) in culture of human fibroblasts; assay type: cell-based; settings: for SENESCENT CELLS (%) HCA20: human fibroblasts passage 20 (HCA20); for SENESCENT CELLS (%) HCA40: human fibroblasts passage 40 (HCA40); for SENESCENT CELLS (%) HCA60: human fibroblasts passage 60 (HCA60)
In short: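 Fibroblasts taken at passages 20, 40 and 60 were washed and fixed for 5 min at room temperature in 2% formaldehyde/0.2% glutaraldehyde in PBS. After PBS washes, cells were incubated at 37 °C for β-galactosidase staining.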

β-adrenergic receptors = experiment: Isoproterenol-induced cAMP synthesis in rat C6 glioma; assay type: cell-based; settings: cellular cAMP, simultaneous addition with isoproterenol, 30 min
Experimental: Anti-inflammatory activity. The compounds of formula 1 having anti-inflammatory activities can be used as cosmetics for treating inflammation skin disorders as atopic dermatitis, lichen planus, hyperpigmentation and Herpes simplex lesions. From this reason, rat C6 glioma (ATCC No. CCL107) was cultivated as a monolayer in a serum-free chemically defined medium containing Ham's F10-minimal essential medium (1:1 v/v), 2 mM L-glutamine, 1% (v/v) minimal essential medium vitamins (100×), 1% (v/v) minimal essential medium nonessential amino acids (100×), 100U/ml penicillin, […] streptomycin and 30 nM sodium selenite. Incubation was performed at 37° C. in a humidified atmosphere. The assays were performed in the logarithmic growth phase at a density of 2.5×10^5 cells/cm^2. Intracellular cAMP synthesis was induced by addition of […] (−)isoproterenol. After 30 min incubation at 37° C. the medium was removed and the cellular amount of cAMP was determined using the cAMP-enzyme immunoassay Amersham kit. The I50 value was determined from a dose-response curve in duplicate. The effect of the novel 6,9-disubstituted purines was measured after simultaneous addition with isoproterenol.
As P2Y1-like and A2 purinergic receptors, negatively and positively coupled to adenylate cyclase, respectively, are present in rat C6 glioma, it remains to be determined whether the modulation of the synthesis of cAMP is due to the inhibition of the activation of β-adrenergic receptors by isoproterenol, or due to the activation of purinergic receptors.

excised wheat leaf tips = experiment: Antisenescence test, retention of chlorophyll in excised wheat leaf tips; parameters: species or system Triticum aestivum cv. Hereward; settings: for activity (%) [10^−4 mol · l^−1 BAP = 100%]: retention of chlorophyll in excised wheat leaf tips at the concentration with highest activity, 10 replicate determinations; for concentration with highest activity: retention of chlorophyll in excised wheat leaf tips, tested range 10^−8 M to 10^−4 M, 96 h in the dark at 25° C.
In short: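 Winter wheat seedlings (Triticum aestivum cv. Hereward) were raised on vermiculite with Knop's solution at 25° C. for 7 days. Tips of the first leaf, 35 mm long (five tips, 100 mg combined), stood in […] of test solution in microtiter wells. After 96 h in the dark at 25° C., chlorophyll was extracted in 80% ethanol at 80° C. and read at 665 nm. Activity is relative to 10^−4 M BAP (100%).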

[3] = test system: cytokinin-dependent tobacco callus Nicotiana tabacum L. cv. Wisconsin 38; experiment: Cytokinin activity in tobacco callus bioassay; assay type: cell-based; settings: for concentration with highest activity: growth of tobacco callus, four weeks of cultivation, tested 10^−8 M to 10^−4 M; for Activity (%) [10^−5 mol · l^−1 BAP = 100%]: increase of fresh callus weight at the concentration with highest activity, 10^−5 M BAP = 100%
[4] = test system: breast carcinoma cell line MCF-7; experiment: In vitro cytotoxicity, Calcein AM assay; settings: Homo sapiens, MCF7, 72 h, read-out: GI50 MCF7
Experimental: (§1) Because only metabolically active cells cleave Calcein AM, these assays detect viable cells exclusively. The quantity of reduced Calcein AM corresponds to the number of vital cells in the culture.
(§2) The cells were maintained in Nunc/Corning 80 cm^2 plastic tissue culture flasks and cultured in cell culture medium (DMEM with 5 g/l glucose, 2 mM glutamine, 100 U/ml penicillin, 100 mg/ml streptomycin, 10% fetal calf serum and sodium bicarbonate).
(§3) The cell suspensions that were prepared and diluted according to the particular cell type and the expected target cell density (2,500-30,000 cells per well based on cell growth characteristics) were added by pipette (80 ml) into 96-well microtiter plates. Inoculates were allowed a pre-incubation period of 24 hours at 37° C. and 5% CO2 for stabilization. Four-fold dilutions of the intended test concentration were added at time zero in 20 ml aliquots to the microtiter plate wells. Usually, the compound tested was evaluated at six 4-fold dilutions. […] All drug concentrations were examined in duplicate. Incubations of cells with the tested compounds lasted for 72 hours at 37° C., in a 5% CO2 atmosphere and 100% humidity. At the end of the incubation period, the cells were assayed by using Calcein AM. Ten microliters of the stock solution were pipetted into each well and incubated for 1 hour. Fluorescence (FD) was measured with the Labsystem FIA Reader Fluoroscan Ascent (UK).

mouse fibroblasts NIH3T3 = experiment: In vitro cytotoxicity, Calcein AM assay; settings: Mus musculus, NIH3T3, 72 h, read-out: GI50 NIH-3T3
Experimental: as §1, §2, §3

[5] = test system: Human T-lymphoblastic leukemia cell line CEM; experiment: In vitro cytotoxicity, Calcein AM assay; settings: Homo sapiens, 72 h, read-out: GI50 CEM
Experimental: as §1, §2, §3

human osteosarcoma HOS = experiment: In vitro cytotoxicity, Calcein AM assay; settings: Homo sapiens, 72 h, read-out: GI50 HOS
[6] = test system: promyelocytic HL-60 leukemia; experiment: In vitro cytotoxicity, Calcein AM assay; settings: Homo sapiens, HL-60, 72 h, read-out: GI50 HL60
Experimental: as §1, §2, §3

Structure (SMILES)	concentration with highest activity [1]	Activity (%) [10^−5 mol · l^−1 BAP = 100%] [1]	SENESCENT CELLS (%) HCA20 [2]	SENESCENT CELLS (%) HCA40 [2]	SENESCENT CELLS (%) HCA60 [2]	Effect (modulation of the activity of β-adrenergic receptors) (β-adrenergic receptors)	activity (%) [10^−4 mol · l^−1 BAP = 100%] (excised wheat leaf tips)	concentration with highest activity (excised wheat leaf tips)	concentration with highest activity [3]	Activity (%) [10^−5 mol · l^−1 BAP = 100%] [3]	GI50 [4]	GI50 (mouse fibroblasts NIH3T3)	GI50 [5]	GI50 (human osteosarcoma HOS)	GI50 [6]
Oc1ccc(CNc2ncnc3c2ncn3C2CCCCO2)cc1O (stereo not drawn)	10^−4 mol · l^−1	52%	3%	4%	15%	1.7-fold fold activation	71.3%	10^−4 mol · l^−1	10^−5 mol · l^−1	61%					
COc1cc(O)cc(OC)c1CNc1ncnc2c1ncn2C1CCCCO1 (stereo not drawn)	10^−4 mol · l^−1	12%	4%	5%	21%	1.3-fol fold activation	22%	10^−4 mol · l^−1	10^−5 mol · l^−1	43%					
COc1cc(CNc2ncnc3c2ncn3C2CCCCO2)ccc1O (stereo not drawn)	10^−4 mol · l^−1	57%	4%	4%	19%	1.6-fold fold activation	55%	10^−4 mol · l^−1	10^−6 mol · l^−1	62%					
Oc1ccc(CNc2ncnc3c2ncn3C2CCCCO2)cc1 (stereo not drawn) [6-(4-hydroxybenzylamino)-9-(tetrahydropyran-2-yl)purine]	10^−4 mol · l^−1	25.3%	5%	5%	16%	1.8-fold fold activation	10.1%	10^−4 mol · l^−1	10^−5 mol · l^−1	36%	> 167 µM	> 167 µM	> 167 µM	> 167 µM	> 167 µM
